According to the supplement of paper PMC9663587:

Assays:
Flavopiridol = compound: CN1CC[C@H](c2c(O)cc(O)c3c(=O)cc(-c4ccccc4Cl)oc23)[C@H](O)C1 [Flavopiridol]; assay: GR value, 72 h; higher = faster growth (1 = untreated, <0 = killing);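 further: breast cancer and non-malignant breast epithelial lines, nine half-log doses, viable cells counted by Hoechst and LIVE/DEAD dye imaging versus time-zero plates and DMSO controls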
YKL-5-124 = compound: C=CC(=O)Nc1ccc(C(=O)Nc2[nH]nc3c2CN(C(=O)N[C@H](CN(C)C)c2ccccc2)C3(C)C)cc1 [YKL-5-124]; assay: as above
[1] = compound: CCc1cnn2c(NCc3ccc[n+]([O-])c3)cc(N3CCCC[C@H]3CCO)nc12; assay: as above
[2] = compound: CC(=O)c1c(C)c2cnc(Nc3ccc(N4CCNCC4)cn3)nc2n(C2CCCC2)c1=O; assay: as above
THZ531 = compound: CN(C)C/C=C/C(=O)Nc1ccc(C(=O)N2CCC[C@@H](Nc3ncc(Cl)c(-c4c[nH]c5ccccc45)n3)C2)cc1 [THZ531]; assay: as above
THZ1 = compound: CN(C)C/C=C/C(=O)Nc1ccc(C(=O)Nc2cccc(Nc3ncc(Cl)c(-c4c[nH]c5ccccc45)n3)c2)cc1 [THZ1]; assay: as above
LEE011/Ribociclib = compound: CN(C)C(=O)c1cc2cnc(Nc3ccc(N4CCNCC4)cn3)nc2n1C1CCCC1 [LEE011/Ribociclib]; assay: as above
[3] = compound: CCN1CCN(Cc2ccc(Nc3ncc(F)c(-c4cc(F)c5nc(C)n(C(C)C)c5c4)n3)nc2)CC1; assay: as above
Paclitaxel = compound: CC(=O)O[C@H]1C(=O)[C@@]2(C)[C@H]([C@H](OC(=O)c3ccccc3)[C@]3(O)C[C@H](OC(=O)[C@H](O)[C@@H](NC(=O)c4ccccc4)c4ccccc4)C(C)=C1C3(C)C)[C@]1(OC(C)=O)CO[C@@H]1C[C@@H]2O [Paclitaxel]
Vorinostat = compound: O=C(CCCCCCC(=O)Nc1ccccc1)NO [Vorinostat]
AZD5363 = compound: NC1(C(=O)N[C@@H](CCO)c2ccc(Cl)cc2)CCN(c2nc[nH]c3nccc2-3)CC1 [AZD5363]
BSJ-03-123 = compound: CC(=O)c1c(C)c2cnc(Nc3ccc(N4CCN(CCOCCOCCOCCNC(=O)COc5cccc6c5C(=O)N(C5CCC(=O)NC5=O)C6=O)CC4)cn3)nc2n(C2CCCC2)c1=O [BSJ-03-123]
[4] = compound: CCc1cnn2c(NCc3ccc[n+]([O-])c3)cc(N3CCCC[C@H]3CCO)nc12
Buparlisib/NVP-BKM120 = compound: Nc1cc(C(F)(F)F)c(-c2cc(N3CCOCC3)nc(N3CCOCC3)n2)cn1 [Buparlisib/NVP-BKM120]
SHP099 = compound: CC1(CCN(CC1)C2=CN=C(C(=N2)N)C3=C(C(=CC=C3)Cl)Cl)N [SHP099]
Cabozantinib = compound: COc1cc2nccc(Oc3ccc(NC(=O)C4(C(=O)Nc5ccc(F)cc5)CC4)cc3)c2cc1OC [Cabozantinib]
[5] = compound: CCN1CCN(Cc2ccc(Nc3ncc(F)c(-c4cc(F)c5nc(C)n(C(C)C)c5c4)n3)nc2)CC1
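Wherever GR50, 72 h is given: breast cancer and non-malignant breast epithelial cell lines, Deep Dye Drop or Dye Drop imaging, nine half-log doses, GR normalized to time-zero plates and DMSO-only controls.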

Q: What does the source list for CAL851?
A: GR value (Flavopiridol; 0.0001 µM): 1.04 GR; GR value (Flavopiridol; 0.0003162 µM): 1.01 GR; GR value (Flavopiridol; 0.001 µM): 0.961 GR; GR value (Flavopiridol; 0.003162 µM): 0.874 GR; GR value (Flavopiridol; 0.01 µM): 0.718 GR; GR value (Flavopiridol; 0.03162 µM): 0.906 GR; GR value (Flavopiridol; 0.1 µM): 0.823 GR; GR value (Flavopiridol; 0.3162 µM): -0.005 GR; GR value (Flavopiridol; 1 µM): -0.159 GR; GR value (YKL-5-124; 0.001 µM): 0.137 GR; GR value (YKL-5-124; 0.003162 µM): -0.128 GR; GR value (YKL-5-124; 0.01 µM): -0.137 GR; GR value (YKL-5-124; 0.03162 µM): -0.128 GR; GR value (YKL-5-124; 0.1 µM): -0.177 GR; GR value (YKL-5-124; 0.3162 µM): -0.275 GR; GR value (YKL-5-124; 1 µM): -0.172 GR; GR value (YKL-5-124; 3.162 µM): -0.25 GR; GR value (YKL-5-124; 10 µM): -0.561 GR; GR value ([1]; 0.0001 µM): 0.97 GR; GR value ([1]; 0.0003162 µM): 1.08 GR; GR value ([1]; 0.001 µM): 0.982 GR; GR value ([1]; 0.003162 µM): 0.681 GR; GR value ([1]; 0.01 µM): 0.0301 GR; GR value ([1]; 0.03162 µM): -0.178 GR; GR value ([1]; 0.1 µM): -0.234 GR; GR value ([1]; 0.3162 µM): -0.213 GR; GR value ([1]; 1 µM): -0.239 GR; GR value ([2]; 0.0003162 µM): 1.05 GR; GR value ([2]; 0.001 µM): 1.07 GR; GR value ([2]; 0.003162 µM): 1.13 GR; GR value ([2]; 0.01 µM): 1.09 GR; GR value ([2]; 0.03162 µM): 1.17 GR; GR value ([2]; 0.1 µM): 1.06 GR; GR value ([2]; 0.3162 µM): 0.993 GR; GR value ([2]; 1 µM): 1.07 GR; GR value ([2]; 3.162 µM): 1.07 GR; GR value (THZ531; 0.0001 µM): 1.12 GR; GR value (THZ531; 0.0003162 µM): 0.975 GR; GR value (THZ531; 0.001 µM): 0.997 GR; GR value (THZ531; 0.003162 µM): 0.889 GR; GR value (THZ531; 0.01 µM): 0.924 GR; GR value (THZ531; 0.03162 µM): 0.717 GR; GR value (THZ531; 0.1 µM): 0.322 GR; GR value (THZ531; 0.3162 µM): 0.0707 GR; GR value (THZ531; 1 µM): -0.218 GR; GR value (THZ1; 0.0001 µM): 1.01 GR; GR value (THZ1; 0.0003162 µM): 0.917 GR; GR value (THZ1; 0.001 µM): 0.835 GR; GR value (THZ1; 0.003162 µM): 0.727 GR; GR value (THZ1; 0.01 µM): 0.6 GR; GR value (THZ1; 0.03162 µM): 0.145 GR; GR value (THZ1; 0.1 µM): -0.146 GR; GR value (THZ1; 0.3162 µM): -0.225 GR; GR value (THZ1; 1 µM): -0.549 GR; GR value (LEE011/Ribociclib; 0.001 µM): 1.09 GR; GR value (LEE011/Ribociclib; 0.003162 µM): 0.939 GR; GR value (LEE011/Ribociclib; 0.01 µM): 0.859 GR; GR value (LEE011/Ribociclib; 0.03162 µM): 1.1 GR; GR value (LEE011/Ribociclib; 0.1 µM): 0.931 GR; GR value (LEE011/Ribociclib; 0.3162 µM): 0.775 GR; GR value (LEE011/Ribociclib; 1 µM): 0.874 GR; GR value (LEE011/Ribociclib; 3.162 µM): 1.04 GR; GR value (LEE011/Ribociclib; 10 µM): 1.11 GR; GR value ([3]; 0.001 µM): 1.09 GR; GR value ([3]; 0.003162 µM): 0.968 GR; GR value ([3]; 0.01 µM): 1.08 GR; GR value ([3]; 0.03162 µM): 1.05 GR; GR value ([3]; 0.1 µM): 1.12 GR; GR value ([3]; 0.3162 µM): 0.914 GR; GR value ([3]; 1 µM): 0.617 GR; GR value ([3]; 3.162 µM): -0.0347 GR; GR value ([3]; 10 µM): -0.233 GR; GR50, 72 h (Paclitaxel): 0.00273 µM; GR50, 72 h (Vorinostat): 1.2 µM; GR50, 72 h (AZD5363): > 10 µM; GR50, 72 h (BSJ-03-123): 0.431 µM; GR50, 72 h [4]: 0.00469 µM; GR50, 72 h (Buparlisib/NVP-BKM120): 0.343 µM; GR50, 72 h (SHP099): > 10 µM; GR50, 72 h (Cabozantinib): 5.34 µM; GR50, 72 h [5]: 1.3 µM
